Reference: paper PMC3739326 (The Biochemical journal, 2011)

Key:
[1] = target: GST–TTBK2-(1–450) wild-type (Homo sapiens, UniProt Q6IQ55); assay: TTBK2 peptide kinase assay; type: biochemical
[2] = test system: TTBK2[R181A or R181E] or TTBK2[A184G or A184E] mutants, GST–TTBK2-(1–450); assay: TTBK2 peptide kinase assay with phosphate-priming groove mutants; type: biochemical, human; details: read-out: Km of peptide phosphorylation by TTBK2 mutants, 0.1 mM [γ-32P]ATP, 20 min at 30 °C, non-linear regression
[3] = test system: lymphoblasts from SCA11-affected individuals; details: cycloheximide as inhibitor of nonsense-mediated decay; cited from earlier work

Chain of GST–TTBK2-(1–450) wild-type (Q6IQ55 1-450): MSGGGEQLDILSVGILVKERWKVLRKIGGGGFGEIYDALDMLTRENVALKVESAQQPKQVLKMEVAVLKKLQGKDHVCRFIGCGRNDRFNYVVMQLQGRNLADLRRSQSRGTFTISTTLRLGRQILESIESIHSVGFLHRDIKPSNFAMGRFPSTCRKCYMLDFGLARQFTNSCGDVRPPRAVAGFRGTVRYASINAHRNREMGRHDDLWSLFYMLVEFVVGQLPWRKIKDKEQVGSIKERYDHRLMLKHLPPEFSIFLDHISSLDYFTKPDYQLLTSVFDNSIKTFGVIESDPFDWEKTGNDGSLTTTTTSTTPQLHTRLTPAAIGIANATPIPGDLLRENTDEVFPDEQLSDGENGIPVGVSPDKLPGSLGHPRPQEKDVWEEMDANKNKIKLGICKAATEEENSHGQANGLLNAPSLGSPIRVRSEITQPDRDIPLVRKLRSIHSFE

RRKDLHDDEEDEAMS*ITA [CK1tide, reference compound]
peptide phosphorylation by TTBK2 (in words) ([1]; TTBK2-(1–450)): phosphorylates CK1tide specifically at this serine residue

RRKDLHDDEEDEAMSIYpA [TTBKtide]
decrease of Km value by introducing a phosphotyrosine at the +2 position ([1]; relative to CK1tide): approximately 8 fold | Vmax of peptide phosphorylation by TTBK2 ([1]; wild-type TTBK2, 0.1 mM [γ-32P]ATP, 20 min at 30 °C, non-linear regression): 76 units/mg | Km [2]: 100 to 150 µM

C[C@@H]1C[C@@H]([C@H](O)CC2CC(=O)NC(=O)C2)C(=O)[C@@H](C)C1 [cycloheximide]
TTBK2 mRNA level [3]: increased TTBK2 mRNA to levels that are similar in the normal transcript
